In ChEMBL document CHEMBL3352497, “Design and optimization of novel 4-(2-fluorophenoxy)quinoline derivatives bearing a hydrazone moiety as c-Met kinase inhibitors” (Eur J Med Chem, 2014):

Legend:
HT-29 = test: cells; conditions: Homo sapiens, HT-29, 72 h
Description: Antiproliferative activity against human HT-29 cells assessed as inhibition of cell growth after 72 hrs by MTT assay

[1] = Antiproliferative activity against human U87MG cells assessed as inhibition of cell growth after 72 hrs by MTT assay; type: functional, cell-based, U-87MG ATCC; conditions: U-87 MG
A549 = test: cells; conditions: Homo sapiens, A549, 72 h
Description: Antiproliferative activity against human A549 cells assessed as inhibition of cell growth after 72 hrs by MTT assay

[2] = Antiproliferative activity against human MKN45 cells assessed as inhibition of cell growth after 72 hrs by MTT assay; type: functional, cell-based; conditions: MKN-45, 72 h
cells = conditions: Homo sapiens, NCI-H460, 72 h
[3] = target: Epidermal growth factor receptor (Homo sapiens, UniProt P00533); test: Inhibition of EGFR (unknown origin)
[4] = target: Mast/stem cell growth factor receptor Kit (Homo sapiens, UniProt P10721); test: Inhibition of c-KIT (unknown origin)
[5] = target: Hepatocyte growth factor receptor (Homo sapiens, UniProt P08581); test: Inhibition of c-Met (unknown origin) using poly (Glu, Tyr) 4:1 substrate by HTRF assay
[6] = target: Macrophage-stimulating protein receptor (Homo sapiens, UniProt Q04912); test: Inhibition of RON (unknown origin)
[7] = target: Vascular endothelial growth factor receptor 2 (Homo sapiens, UniProt P35968); test: Inhibition of KDR (unknown origin)
[8] = target: T1, Receptor-type tyrosine-protein kinase FLT3 (Homo sapiens, UniProt P36888); test: Inhibition of FLT3 (unknown origin)
T1 sequence (P36888 whole entry): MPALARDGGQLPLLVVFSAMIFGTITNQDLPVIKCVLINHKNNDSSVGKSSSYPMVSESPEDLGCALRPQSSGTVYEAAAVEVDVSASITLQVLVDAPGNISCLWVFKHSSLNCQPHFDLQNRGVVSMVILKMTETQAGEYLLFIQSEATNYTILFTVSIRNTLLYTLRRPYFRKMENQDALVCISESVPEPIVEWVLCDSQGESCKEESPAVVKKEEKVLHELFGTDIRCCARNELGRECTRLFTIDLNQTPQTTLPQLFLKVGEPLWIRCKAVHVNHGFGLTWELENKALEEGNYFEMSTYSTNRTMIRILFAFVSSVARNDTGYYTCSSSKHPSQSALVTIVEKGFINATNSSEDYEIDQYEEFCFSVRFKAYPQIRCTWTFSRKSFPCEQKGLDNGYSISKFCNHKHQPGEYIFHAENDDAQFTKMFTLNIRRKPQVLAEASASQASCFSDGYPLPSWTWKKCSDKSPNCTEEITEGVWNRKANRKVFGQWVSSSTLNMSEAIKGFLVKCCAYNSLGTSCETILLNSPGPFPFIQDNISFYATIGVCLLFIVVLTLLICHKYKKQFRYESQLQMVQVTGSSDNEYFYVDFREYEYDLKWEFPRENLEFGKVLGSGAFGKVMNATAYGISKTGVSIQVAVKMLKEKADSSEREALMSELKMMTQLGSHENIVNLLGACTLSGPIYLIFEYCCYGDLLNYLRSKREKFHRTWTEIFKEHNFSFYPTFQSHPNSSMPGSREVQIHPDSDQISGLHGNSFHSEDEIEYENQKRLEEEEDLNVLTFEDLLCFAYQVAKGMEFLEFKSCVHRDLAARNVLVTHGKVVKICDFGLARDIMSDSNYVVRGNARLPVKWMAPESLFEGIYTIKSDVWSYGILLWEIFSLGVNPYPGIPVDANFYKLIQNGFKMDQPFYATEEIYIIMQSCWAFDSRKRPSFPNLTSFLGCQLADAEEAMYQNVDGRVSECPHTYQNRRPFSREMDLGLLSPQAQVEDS

Sequence of Macrophage-stimulating protein receptor (Q04912 25-304 limits assumed): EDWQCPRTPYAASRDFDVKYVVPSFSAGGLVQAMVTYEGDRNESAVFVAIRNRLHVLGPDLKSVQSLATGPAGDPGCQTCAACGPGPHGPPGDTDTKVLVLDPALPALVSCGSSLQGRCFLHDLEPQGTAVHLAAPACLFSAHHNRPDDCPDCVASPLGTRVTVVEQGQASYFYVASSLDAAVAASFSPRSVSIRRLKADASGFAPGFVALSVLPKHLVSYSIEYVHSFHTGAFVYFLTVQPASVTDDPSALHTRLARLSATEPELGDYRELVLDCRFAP
Sequence of Macrophage-stimulating protein receptor (Q04912 310-1400 limits assumed): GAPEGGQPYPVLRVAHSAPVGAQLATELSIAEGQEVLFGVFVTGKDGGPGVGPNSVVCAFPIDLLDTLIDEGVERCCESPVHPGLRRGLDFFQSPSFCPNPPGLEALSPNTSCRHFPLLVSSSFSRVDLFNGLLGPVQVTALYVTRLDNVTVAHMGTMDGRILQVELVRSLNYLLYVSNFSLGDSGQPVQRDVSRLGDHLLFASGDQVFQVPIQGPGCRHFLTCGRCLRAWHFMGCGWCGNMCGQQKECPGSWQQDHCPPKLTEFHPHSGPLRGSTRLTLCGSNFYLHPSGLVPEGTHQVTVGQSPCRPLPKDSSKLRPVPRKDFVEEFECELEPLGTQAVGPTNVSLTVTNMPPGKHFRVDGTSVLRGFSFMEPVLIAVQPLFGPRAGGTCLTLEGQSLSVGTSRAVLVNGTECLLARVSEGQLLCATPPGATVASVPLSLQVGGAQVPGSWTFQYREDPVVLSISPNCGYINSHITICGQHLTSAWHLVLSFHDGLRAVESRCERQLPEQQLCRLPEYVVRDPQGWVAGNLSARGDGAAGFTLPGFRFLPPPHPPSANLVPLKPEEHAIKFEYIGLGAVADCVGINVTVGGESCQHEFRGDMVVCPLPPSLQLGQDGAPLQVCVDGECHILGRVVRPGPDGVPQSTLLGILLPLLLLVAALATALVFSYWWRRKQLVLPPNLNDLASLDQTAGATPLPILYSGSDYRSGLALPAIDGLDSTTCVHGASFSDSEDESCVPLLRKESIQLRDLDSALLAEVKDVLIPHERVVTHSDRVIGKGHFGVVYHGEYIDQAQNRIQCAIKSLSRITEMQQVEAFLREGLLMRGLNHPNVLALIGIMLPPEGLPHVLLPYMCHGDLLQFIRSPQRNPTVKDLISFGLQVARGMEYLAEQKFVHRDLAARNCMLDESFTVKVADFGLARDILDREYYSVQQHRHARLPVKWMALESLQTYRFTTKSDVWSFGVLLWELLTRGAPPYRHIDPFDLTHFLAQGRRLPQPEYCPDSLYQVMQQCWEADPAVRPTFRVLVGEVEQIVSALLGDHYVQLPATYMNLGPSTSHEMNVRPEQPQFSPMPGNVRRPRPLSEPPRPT
Sequence of Epidermal growth factor receptor (P00533 whole entry): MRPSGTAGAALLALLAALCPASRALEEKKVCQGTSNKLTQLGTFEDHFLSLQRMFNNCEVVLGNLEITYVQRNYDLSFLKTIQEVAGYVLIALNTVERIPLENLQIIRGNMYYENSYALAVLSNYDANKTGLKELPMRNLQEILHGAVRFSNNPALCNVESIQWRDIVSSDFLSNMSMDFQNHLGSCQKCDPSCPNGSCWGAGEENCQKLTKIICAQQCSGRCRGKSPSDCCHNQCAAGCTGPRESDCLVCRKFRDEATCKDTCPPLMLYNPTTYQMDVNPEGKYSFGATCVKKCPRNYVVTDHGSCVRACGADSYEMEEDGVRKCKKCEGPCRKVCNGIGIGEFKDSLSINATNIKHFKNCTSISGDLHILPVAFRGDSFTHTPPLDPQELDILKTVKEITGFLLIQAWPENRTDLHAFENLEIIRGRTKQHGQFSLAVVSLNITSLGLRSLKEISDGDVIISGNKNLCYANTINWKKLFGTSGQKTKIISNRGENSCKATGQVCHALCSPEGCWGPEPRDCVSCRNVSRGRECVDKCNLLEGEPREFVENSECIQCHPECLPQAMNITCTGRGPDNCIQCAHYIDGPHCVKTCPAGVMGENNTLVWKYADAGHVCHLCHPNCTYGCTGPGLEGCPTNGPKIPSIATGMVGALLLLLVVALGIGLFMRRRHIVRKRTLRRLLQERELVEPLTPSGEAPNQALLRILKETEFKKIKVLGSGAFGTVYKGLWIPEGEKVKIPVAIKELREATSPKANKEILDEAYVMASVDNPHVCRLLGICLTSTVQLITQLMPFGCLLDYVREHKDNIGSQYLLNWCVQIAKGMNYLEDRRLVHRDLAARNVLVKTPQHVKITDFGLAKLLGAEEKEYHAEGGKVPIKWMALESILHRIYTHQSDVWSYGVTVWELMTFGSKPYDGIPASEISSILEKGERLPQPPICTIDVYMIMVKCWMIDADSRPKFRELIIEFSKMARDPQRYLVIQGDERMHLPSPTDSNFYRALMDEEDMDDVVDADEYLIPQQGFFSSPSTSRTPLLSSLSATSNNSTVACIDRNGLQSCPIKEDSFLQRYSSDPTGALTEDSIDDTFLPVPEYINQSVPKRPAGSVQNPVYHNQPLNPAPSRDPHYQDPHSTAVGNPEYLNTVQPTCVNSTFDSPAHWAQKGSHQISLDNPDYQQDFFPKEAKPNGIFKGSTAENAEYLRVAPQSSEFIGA
Sequence of Hepatocyte growth factor receptor (P08581 whole entry): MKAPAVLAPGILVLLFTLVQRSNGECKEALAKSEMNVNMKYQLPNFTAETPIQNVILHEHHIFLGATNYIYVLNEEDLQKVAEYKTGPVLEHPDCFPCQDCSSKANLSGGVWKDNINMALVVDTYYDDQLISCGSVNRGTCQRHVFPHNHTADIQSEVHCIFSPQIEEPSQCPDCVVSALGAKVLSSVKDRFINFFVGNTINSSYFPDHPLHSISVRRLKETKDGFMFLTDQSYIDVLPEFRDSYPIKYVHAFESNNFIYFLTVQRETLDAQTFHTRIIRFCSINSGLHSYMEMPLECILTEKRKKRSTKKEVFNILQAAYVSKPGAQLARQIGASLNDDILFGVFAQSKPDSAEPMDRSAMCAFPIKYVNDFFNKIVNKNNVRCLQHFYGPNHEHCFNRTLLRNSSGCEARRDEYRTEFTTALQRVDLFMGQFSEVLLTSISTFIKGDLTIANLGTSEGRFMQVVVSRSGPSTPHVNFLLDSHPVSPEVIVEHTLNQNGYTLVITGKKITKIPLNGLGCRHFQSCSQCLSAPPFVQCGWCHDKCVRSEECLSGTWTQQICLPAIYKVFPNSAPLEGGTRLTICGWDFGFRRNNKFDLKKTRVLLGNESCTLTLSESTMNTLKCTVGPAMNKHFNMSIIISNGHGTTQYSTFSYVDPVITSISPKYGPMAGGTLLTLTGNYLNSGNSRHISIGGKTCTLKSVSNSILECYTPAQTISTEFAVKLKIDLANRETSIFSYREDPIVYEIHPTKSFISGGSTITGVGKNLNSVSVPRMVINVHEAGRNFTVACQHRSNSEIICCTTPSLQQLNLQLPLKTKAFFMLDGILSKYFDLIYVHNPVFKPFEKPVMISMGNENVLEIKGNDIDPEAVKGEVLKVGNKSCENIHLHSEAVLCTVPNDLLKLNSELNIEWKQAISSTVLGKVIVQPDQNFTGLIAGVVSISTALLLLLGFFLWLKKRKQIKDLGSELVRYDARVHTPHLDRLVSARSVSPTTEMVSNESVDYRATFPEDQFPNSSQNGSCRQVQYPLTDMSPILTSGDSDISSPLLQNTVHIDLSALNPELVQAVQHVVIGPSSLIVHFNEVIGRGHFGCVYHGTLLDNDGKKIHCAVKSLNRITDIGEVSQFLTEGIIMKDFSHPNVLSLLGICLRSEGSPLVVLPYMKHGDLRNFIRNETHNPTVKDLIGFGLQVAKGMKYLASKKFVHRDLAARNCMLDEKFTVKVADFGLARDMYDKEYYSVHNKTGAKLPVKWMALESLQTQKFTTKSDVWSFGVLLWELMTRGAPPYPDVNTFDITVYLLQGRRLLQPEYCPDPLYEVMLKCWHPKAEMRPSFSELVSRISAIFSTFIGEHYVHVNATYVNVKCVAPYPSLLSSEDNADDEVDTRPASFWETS
Sequence of Mast/stem cell growth factor receptor Kit (P10721 whole entry): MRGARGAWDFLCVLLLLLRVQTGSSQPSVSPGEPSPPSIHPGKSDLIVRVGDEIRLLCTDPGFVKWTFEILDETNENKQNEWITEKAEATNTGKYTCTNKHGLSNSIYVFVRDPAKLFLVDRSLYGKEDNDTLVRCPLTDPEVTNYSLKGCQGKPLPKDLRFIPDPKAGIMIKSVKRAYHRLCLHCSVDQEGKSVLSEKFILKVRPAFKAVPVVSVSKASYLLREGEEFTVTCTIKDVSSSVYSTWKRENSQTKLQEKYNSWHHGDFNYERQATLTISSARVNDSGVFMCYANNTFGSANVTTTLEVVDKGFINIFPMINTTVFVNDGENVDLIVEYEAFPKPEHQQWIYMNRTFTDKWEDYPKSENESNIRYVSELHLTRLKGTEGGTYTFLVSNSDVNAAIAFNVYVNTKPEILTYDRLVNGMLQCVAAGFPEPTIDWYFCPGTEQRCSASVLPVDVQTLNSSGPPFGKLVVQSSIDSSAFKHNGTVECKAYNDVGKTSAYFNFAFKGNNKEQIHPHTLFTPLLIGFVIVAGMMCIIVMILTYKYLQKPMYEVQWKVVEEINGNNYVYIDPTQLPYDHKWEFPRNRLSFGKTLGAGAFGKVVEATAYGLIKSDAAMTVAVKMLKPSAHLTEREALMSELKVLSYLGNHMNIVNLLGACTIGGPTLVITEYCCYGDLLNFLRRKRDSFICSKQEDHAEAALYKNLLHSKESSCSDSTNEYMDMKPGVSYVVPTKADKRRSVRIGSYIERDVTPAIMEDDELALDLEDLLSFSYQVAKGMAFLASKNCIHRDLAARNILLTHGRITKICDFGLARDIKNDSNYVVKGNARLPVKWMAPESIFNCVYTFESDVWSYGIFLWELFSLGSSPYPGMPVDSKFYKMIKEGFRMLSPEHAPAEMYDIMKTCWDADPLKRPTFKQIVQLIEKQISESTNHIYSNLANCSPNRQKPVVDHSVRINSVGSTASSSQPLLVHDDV

Structure (SMILES) | IC50 (HT-29) [µM] | IC50 [1] [µM] | IC50 (A549) [µM] | IC50 [2] [µM] | IC50 (cells) [µM] | IC50 [3] [µM] | IC50 [4] [µM] | IC50 [5] [µM] | IC50 [6] [µM] | IC50 [7] [µM] | IC50 [8] [µM]
COc1cc2c(Oc3ccc(CC(=O)N/N=C(/C)c4ccc(C(F)(F)F)cc4)cc3F)ccnc2cc1OCCCN1CCCC1 | 0.19 | 0.37 | 0.096 | 0.42 | 0.046 |  |  |  |  |  | 
COc1cc2c(Oc3ccc(CC(=O)N/N=C(/C)c4ccc(C(F)(F)F)cc4)cc3F)ccnc2cc1OCCCN1CCOCC1 | 0.26 | 0.39 | 0.17 | 0.59 | 0.071 |  |  |  |  |  | 
COc1cc2c(Oc3ccc(CC(=O)N/N=C/c4ccc(OC(F)(F)F)cc4)cc3F)ccnc2cc1OCCCN1CCOCC1 | 0.38 | 0.45 | 0.2 | 0.69 | 0.081 |  |  |  |  |  | 
COc1cc2c(Oc3ccc(CC(=O)N/N=C/c4ccco4)cc3F)ccnc2cc1OCCCN1CCOCC1 | 2.78 |  | 3.19 |  | 0.88 |  |  |  |  |  | 
COc1cc2c(Oc3ccc(CC(=O)N/N=C/c4ccc(C(F)(F)F)cc4)cc3F)ccnc2cc1OCCCN1CCCC1 | 0.15 | 0.29 | 0.08 | 0.37 | 0.031 | > 100 | 0.045 | 0.00186 | 0.0286 | 0.56 | 0.39
COc1cc2c(Oc3ccc(CC(=O)N/N=C/c4ccc(C(F)(F)F)cc4)cc3F)ccnc2cc1OCCCN1CCOCC1 | 0.22 | 0.3 | 0.11 | 0.49 | 0.055 |  |  |  |  |  | 
COc1ccc(/C=N/NC(=O)Cc2ccc(Oc3ccnc4cc(OCCCN5CCOCC5)c(OC)cc34)c(F)c2)cc1 | 1.72 | 2.65 | 0.96 | 3.91 | 0.45 |  |  |  |  |  | 
COc1cc2c(Oc3ccc(CC(=O)N/N=C(/C)c4ccc(C(F)(F)F)cc4)cc3F)ccnc2cc1OCCCN1CCCCC1 | 0.45 | 0.59 | 0.29 | 0.94 | 0.13 |  |  |  |  |  | 
COc1cc2c(Oc3ccc(CC(=O)N/N=C/c4ccccc4)cc3F)ccnc2cc1OCCCN1CCOCC1 | 0.41 | 0.48 | 0.23 | 0.82 | 0.11 |  |  |  |  |  | 
COc1cc2c(Oc3ccc(CC(=O)N/N=C/c4ccc(O)cc4)cc3F)ccnc2cc1OCCCN1CCOCC1 | 1.3 | 1.7 | 0.56 | 3.22 | 0.31 |  |  |  |  |  | 
COc1cc(/C=N/NC(=O)Cc2ccc(Oc3ccnc4cc(OCCCN5CCOCC5)c(OC)cc34)c(F)c2)ccc1O | 3.94 | 5.86 | 2.98 | 11.2 | 1.17 |  |  |  |  |  | 
COc1cc2c(Oc3ccc(CC(=O)N/N=C/c4ccccc4)cc3F)ccnc2cc1OCCCN1CCCCC1 | 0.8 | 1.02 | 0.4 | 1.58 | 0.22 |  |  |  |  |  | 
COc1cc2c(Oc3ccc(CC(=O)N/N=C/c4ccc(F)cc4)cc3F)ccnc2cc1OCCCN1CCCC1 | 0.26 | 0.42 | 0.14 | 0.56 | 0.067 |  |  |  |  |  | 
COc1cc2c(Oc3ccc(CC(=O)N/N=C(/C)c4ccc(F)cc4)cc3F)ccnc2cc1OCCCN1CCCC1 | 0.28 | 0.35 | 0.17 | 0.58 | 0.072 |  |  |  |  |  | 
COc1cc2c(Oc3ccc(CC(=O)N/N=C/c4ccc[nH]4)cc3F)ccnc2cc1OCCCN1CCOCC1 | 2.36 |  | 1.22 |  | 0.76 |  |  |  |  |  | 
COc1cc2c(Oc3ccc(CC(=O)N/N=C(/C)c4ccccc4)cc3F)ccnc2cc1OCCCN1CCCCC1 | 0.97 | 1.38 | 0.52 | 1.99 | 0.34 |  |  |  |  |  | 

Structure (SMILES) | IC50 (HT-29) [µM] | IC50 [1] [µM] | IC50 (A549) [µM] | IC50 [2] [µM] | IC50 (cells) [µM] | IC50 [3] [µM] | IC50 [4] [µM] | IC50 [5] [µM] | IC50 [6] [µM] | IC50 [7] [µM] | IC50 [8] [µM]
COc1cc2c(Oc3ccc(CC(=O)N/N=C/c4ccc(S(C)(=O)=O)cc4)cc3F)ccnc2cc1OCCCN1CCOCC1 | 0.48 | 0.68 | 0.25 | 1.14 | 0.1 |  |  |  |  |  | 
COc1cc2c(Oc3ccc(CC(=O)N/N=C(/C)c4ccccc4)cc3F)ccnc2cc1OCCCN1CCOCC1 | 0.54 | 0.61 | 0.35 | 0.97 | 0.19 |  |  |  |  |  | 
COc1cc2c(Oc3ccc(CC(=O)N/N=C/c4cccs4)cc3F)ccnc2cc1OCCCN1CCOCC1 | 0.96 | 1.15 | 0.39 | 1.82 | 0.28 |  |  |  |  |  | 
COc1cc2c(Oc3ccc(CC(=O)N/N=C/C(C)C)cc3F)ccnc2cc1OCCCN1CCOCC1 | 25.2 |  | 23 |  | 7.14 |  |  |  |  |  | 
COc1cc2c(Oc3ccc(CC(=O)N/N=C(/C)c4ccc(Cl)cc4)cc3F)ccnc2cc1OCCCN1CCCC1 | 0.29 |  | 0.19 |  | 0.083 |  |  |  |  |  | 
COc1cc2c(Oc3ccc(CC(=O)N/N=C(/C)c4ccc(O)cc4)cc3F)ccnc2cc1OCCCN1CCCC1 | 0.78 | 1.16 | 0.41 | 1.68 | 0.18 |  |  |  |  |  | 
COc1cc2c(Oc3ccc(CC(=O)N/N=C(/C)c4ccccc4)cc3F)ccnc2cc1OCCCN1CCCC1 | 0.44 | 0.59 | 0.28 | 0.76 | 0.099 |  |  |  |  |  | 
COc1cc2c(Oc3ccc(CC(=O)N/N=C/c4ccccc4F)cc3F)ccnc2cc1OCCCN1CCCC1 | 0.48 | 0.81 | 0.32 | 0.98 | 0.082 |  |  |  |  |  | 
COc1cc2c(Oc3ccc(CC(=O)N/N=C(/C)c4ccc(C(F)(F)F)cc4)cc3F)ccnc2cc1OCCCN1CCC(C)CC1 | 0.36 | 0.51 | 0.22 | 0.84 | 0.096 |  |  |  |  |  | 
COc1cc2c(Oc3ccc(CC(=O)N/N=C/c4ccncc4)cc3F)ccnc2cc1OCCCN1CCOCC1 | 0.32 | 0.5 | 0.16 | 0.79 | 0.094 |  |  |  |  |  | 
COc1cc2c(Oc3ccc(CC(=O)N/N=C/c4ccccc4)cc3F)ccnc2cc1OCCCN1CCCC1 | 0.34 | 0.42 | 0.14 | 0.72 | 0.083 |  |  |  |  |  | 
COc1cc2c(Oc3ccc(CC(=O)N/N=C/c4ccc(Cl)cc4)cc3F)ccnc2cc1OCCCN1CCCC1 | 0.28 | 0.4 | 0.17 | 0.62 | 0.075 |  |  |  |  |  | 
COc1cc2c(Oc3ccc(CC(=O)N/N=C(/C)c4ccccc4)cc3F)ccnc2cc1OCCCN1CCC(C)CC1 | 0.95 | 1.48 | 0.39 | 2.69 | 0.2 |  |  |  |  |  | 
COc1cc2c(Oc3ccc(CC(=O)N/N=C/c4ccccc4)cc3F)ccnc2cc1OCCCN1CCC(C)CC1 | 0.81 | 0.97 | 0.34 | 2.12 | 0.17 |  |  |  |  |  | 
COc1cc2c(Oc3ccc(CC(=O)N/N=C/c4ccc(O)c(Br)c4)cc3F)ccnc2cc1OCCCN1CCOCC1 | 3.67 |  | 2.54 |  | 1.08 |  |  |  |  |  | 
COc1cc2c(Oc3ccc(CC(=O)N/N=C/c4ccc(OC(F)(F)F)cc4)cc3F)ccnc2cc1OCCCN1CCCC1 | 0.2 | 0.33 | 0.13 | 0.46 | 0.058 |  |  |  |  |  | 
